Data on six compounds can be found in article PMC3742835, “Powerful Inhibition of Experimental Human Pancreatic Cancers by Receptor Targeted Cytotoxic LH-RH analog AEZS-108” (Oncotarget, 2013).

Data set [1] deals with SW-1990 cancers. Briefly: Experiment 2: SW-1990 tumor growth in nude mice. Type of data set: in vivo, human (xenograft in nude mice). To be noted: for Tumor volume (final): control 3464±838; for Tumor volume (final) / Tumor weights, solid tumor part: AN-152 and DOX P<0.05 vs. control; for Tumor weights, tumors with cysts: control 3729±921, AN-152 P<0.05 vs. control; for Tumor weights, solid tumor part: cut, fluid released, control 2473±636. How it is done:
(§1) Control and treatment groups were then selected at random.
All compounds were administered iv.(at 6.9 μmol/kg) once weekly for 7 weeks. There were 10 animals per group. The experiment was terminated 65 days after the first treatment.

For data set [2], the system named is nitrosamine-induced pancreatic cancers. To be noted: hamsters; cited from earlier work. An excerpt:
Receptors for various peptide hormones are present in pancreatic cancers and these receptors can be utilized for both diagnostic and therapeutic purposes.. […] [15, 21] however, their function and importance is still unclear. The combined detection of mRNA for both LH-RH and LH-RH receptor in rat pancreatic cancer lines raised the possibility of an autocrine/paracrine role of LH-RH in these tumors. The findings that both estrogen and androgen receptors are likewise expressed in pancreati ...

The subject of data set [3] is binding sites for LH-RH in nitrosamine-induced pancreatic cancers in hamsters. The arrangement: method as in PMID 15350601. The settings on record: cited from earlier work.
Data set [4] concerns advanced pancreatic cancers. The settings on record: cited from earlier work. An excerpt:
Pancreatic carcinoma is the 9th most common human cancer in the Western world, including the USA, but it is the fourth leading cause of cancer death in both males and females. Its incidence has increased in the white population by about 1% per year between 1999 through 2008. Ductal carcinomas of the pancreas are very aggressive tumors, and because of the concealed location of the gland, they are mostly detected in late stages of development when surgical removal is not useful. Thus, the 5-year survival rate is below 5% and the median survival time after diagnosis is less than 6 mo ...

Data set [5] is described as follows: Experiment 3: body and organ weights of mice. Type of data set: in vivo. The settings on record: Experiment 3, nude mice with CFPAC-1; iv.
Text: as §1

Data set [6] relates to Panc-1 cancers. Briefly: Human Apoptosis RT Profiler PCR Array, Panc-1. Type of data set: in vivo, human (xenograft in nude mice). An excerpt:
(§2) After isolating total RNA and protein from tumor samples from experiments 2, 3 and 4 by using the NucleoSpin kit (Macherey-Nagel, Bethlehem, PA, USA), the Human Cancer Pathway Finder Superarray and the Human Apoptosis RT Profiler PCR Array (Qiagen Inc. Valencia, CA, USA) were used to analyze 3 representative samples from each group for mRNA levels of genes related to cell adhesion, apoptosis, cell cycle, angiogenesis, signal transduction, invasion and metastasis. Quality control of RNA samples, synthesis of cDNA and RT-PCR arrays were performed as described. Gene expression data were examined using Excel based PCR Array Data Analysis Software provided by Qiagen; fold-changes in gene expression were calculated using the ΔΔCt method and five housekeeping genes (B2M, HPRT1, RPL13A, GAPDH, and ACTB) were used for normalization of the results.
On the technique in general: Xenograft models place foreign cells or tissue in a host animal.

Data set [7] deals with SW-1990 tumors. The data set can be described thus: Human Cancer Pathway Finder PCR Array, SW-1990 tumors. Type of data set: in vivo, human (xenograft in nude mice).
Text: as §2

Data set [8] relates to Panc-1 cancers. The data set can be described thus: Human Cancer Pathway Finder PCR Array, Panc-1 tumors. The class given is in vivo, human (xenograft in nude mice).
Text: as §2

The test system of data set [9] is CFPAC-1 cancers. The data set can be described thus: Human Cancer Pathway Finder PCR Array, CFPAC-1 tumors. Type of data set: in vivo, human (xenograft in nude mice).
Text: as §2

Data set [10] has as its system three tumor lines (Panc-1, SW-1990, CFPAC-1). The data set can be described thus: Human Cancer Pathway Finder PCR Array, three tumor lines together. The class given is in vivo, human (xenograft in nude mice).
Text: as §2

The test system of data set [11] is CFPAC-1 cancers. Briefly: Human Apoptosis RT Profiler PCR Array, CFPAC-1. Type of data set: in vivo, human (xenograft in nude mice).
Text: as §2

Data set [12] in a line: Experiment 1: body and organ weights of mice. The class given is in vivo. To be noted: Experiment 1, nude mice with Panc-1; AN-152 6.9 μmol/kg, DOX 2.5 μmol/kg iv. How it is done:
as §1
(§3) In Experiment 1, nude mice with Panc-1 tumors were treated iv. on days 1, 8. […] There were 8 animals in each group. The experiment was terminated on day 82.

Data set [13] concerns SW-1990 tumors. Briefly: Human Apoptosis RT Profiler PCR Array, SW-1990. Type of data set: in vivo, human (xenograft in nude mice).
Text: as §2

In data set [14] the test system is Panc-1 cancers. Briefly: Experiment 1: Panc-1 tumor growth in nude mice. The class given is in vivo, human (xenograft in nude mice). The settings on record: AN-152 6.9 μmol/kg, DOX 2.5 μmol/kg. How it is done: as §1, §3
Data set [15] relates to CFPAC-1 cancers. Briefly: Experiment 3: CFPAC-1 tumor growth in nude mice.
Protocol: Chemicals, unless stated otherwise, were purchased from Sigma (St. Louis, MO).
Female athymic nude mice (Ncr nu/nu) were obtained from the National Cancer Institute (Frederick Cancer Research and Development Center, Frederick, MD), Charles River Laboratories International, Inc. (Durham, NC) and Harlan Laboratories (Tampa, FL) and maintained under pathogen-limited conditions. […] To produce tumor donor animals, 10^6 cells of each line were injected subcutaneously into 3 nude mice and grown until well-developed tumors were grown. The resulting tumors were removed, minced and 2 mm^3 pieces of tumor tissue were transplanted subcutaneously into each flank area of the experimental nude mice. When the tumors became measurable, the mice were divided into groups with nearly equal average tumor sizes. Control and treatment groups were then selected at random.
The compounds were given iv. on days 1, 5, 8, 12, 15 and 30. There were 8 animals per group, and the experiment lasted to the 61st day of the treatment period.
One-way ANOVA (Sigmaplot-11 software; Jandel Scientific, San Raphael, CA) was used for statistical evaluation of the data, and the groups were compared using Dunnett's method.
Setting [16] is: SW-1990, 6.9 μmol/kg iv once weekly for 7 weeks, 10 animals/group, day 65, means ± SE.

D-Trp^6LH-RH: the “Cystic/solid tumor (weight ratio)” value in data set [1] (SW-1990, 6.9 μmol/kg iv once weekly for 7 weeks, 10 animals/group, day 65, means ± SE, control 1.56±0.12, AN-152 P<0.05 vs. all other groups) was determined as 1.56±0.11. Besides, in data set [1] (setting [16]), the “Tumor volume (final)” value is 2791±646 mm3; the “Tumor weights, tumors with cysts” value was 3107 ± 696 mg; the “Tumor weights, solid tumor part” value is 1862 ± 361 mg. For the same compound, in data set [2], the “Growth inhibition of nitrosamine-induced pancreatic cancers” value is listed as “inhibits growth”.
For LH-RH: hypothalamic peptide hormone, the “Affinity of binding sites for LH-RH” value in data set [3] was “moderate-affinity”.
For cetrorelix, the “Growth inhibition of nitrosamine-induced pancreatic cancers” value in data set [2] is given as “inhibits growth”.
As to FOLFIRINOX, in data set [4] (human, in vivo), the Toxicity result is “highly toxic”.
Consider `COc1cccc2c1C(=O)c1c(O)c3c(c(O)c1C2=O)C[C@@](O)(C(=O)CO)C[C@@H]3O[C@H]1C[C@H](N)[C@H](O)[C@H](C)O1` [DOX, doxorubicin], for which the Body weights result in data set [5] is “the lowest in the group receiving DOX, but the differences from control were statistically not significant”. In [5], the Ovarian weights result is recorded as “reduced”. In addition, the “Expression of anti-apoptotic genes” value in data set [6] is “mostly increased”; in data set [11], “decreased”; in data set [13] it was “mostly increased”. Moreover, the “Expression of pro-apoptotic genes” value is “increased” in [6] (several genes), “decreased” in data set [11] (several genes) and “changed in both directions” in data set [13] (several genes). For the same compound, the “Expression of cell cycle control and DNA damage repair genes” value is “altered in both directions” in data set [7], “altered in both directions” in data set [8] and “only decreases” in data set [9]. Besides, the entries for the “Expression of genes associated with adhesion” value in [7] (treated vs control tumors), in data set [8] (treated vs control tumors) and in [9] (treated vs control tumors) were “changed in both directions”, “decreased” and “decreased”, respectively. For the same compound, in data set [1] (SW-1990, 6.9 μmol/kg iv once weekly for 7 weeks), the “Solid tumor weights (in words)” value was “reduced”. Further, the “Tumor volume (final)” value worked out at 1213±381a mm3 in data set [1] (setting [16]); 849±363 mm3 in data set [14] (Panc-1, iv days 1, 8, 15, 22, 33, 61, 8 animals/group, day 82, means ± SE, control 2040±1357, AN-152 P<0.05 vs. control); 1063±518 mm3 in data set [15] (iv days 1, 5, 8, 12, 15 and 30, 8 animals/group, day 61, means ± SE, control 2502±769, AN-152 P<0.05 vs. control). Further, the “Tumor weights, tumors with cysts” value in [1] (setting [16]) is 1496 ± 466 mg. In data set [1] (setting [16]), the “Tumor weights, solid tumor part” value was determined as 585 ± 141 mg. In addition, the “Growth inhibition (in words)” value in [1] (SW-1990 in nude mice) was “inhibitory effect on growth”; in [14] (Panc-1 in nude mice, iv), “only a moderate but not significant inhibitory effect”. In addition, in [10] (all three tumor lines, treated vs control tumors), the “Expression of genes related to invasion and metastasis” value is recorded as “causing the stronger increases”. Moreover, in data set [10] (three tumor lines), the TIMP3 expression result is recorded as “strongly increased”. Further, the “Expression of genes related to signal transduction molecules and transcription factors” value in [10] (three tumor lines, treated vs control tumors) is “caused considerable increases or decreases in some”. Further, the “Expression of apoptosis-associated genes” value in data set [10] (three tumors, Cancer Pathway Finder array) was “variable in the three tumors after both treatments”. Moreover, the “Effect on body and organ weights” value in data set [12] is “Neither treatment had an effect on body and organ weights of the mice”. For the same compound, in [15] (iv days 1, 5, 8, 12, 15 and 30), the “Tumor volume (in words)” value is on record as “moderate but not significant decrease”.
As for `Nc1ccn([C@@H]2O[C@H](CO)[C@@H](O)C2(F)F)c(=O)n1` [gemcitabine], in data set [4] (gemcitabine alone or in combination with 5-fluorouracil, radiation or erlotinib, advanced pancreatic cancers), the Clinical efficacy entry is “minimal palliation”.
